From ChEMBL document CHEMBL1137609, “Low-calcemic, highly antiproliferative, 23-oxa ether analogs of the natural hormone 1 alpha,25-dihydroxyvitamin D3: design, synthesis, and preliminary biological evaluation” (J Med Chem, 2007) come the findings set out here.

The test system of series [1] is Mus musculus. In words: Induction of CYP24 mRNA transcriptional activity in C57BL/6 mouse duodenum at 3 ug/kg, ip after 4 hrs. Format: functional, organism-based.
In series [2] the test system is Mus musculus. Put plainly: Induction of TRPV6 mRNA transcriptional activity in C57BL/6 mouse duodenum at 3 ug/kg, ip after 4 hrs. In kind it is functional, organism-based.
Series [3] is described as follows: Lipophilicity, log D of the compound. In kind it is physicochemical. The settings on record: octanol/water.
Series [4] relates to Mus musculus. Put plainly: Induction of CYP24 mRNA transcriptional activity in C57BL/6 mouse duodenum at 25 ug/kg, ip after 4 hrs. Format: functional, organism-based.
For series [5], the system named is Mus musculus. In words: Induction of TRPV6 mRNA transcriptional activity in C57BL/6 mouse duodenum at 25 ug/kg, ip after 4 hrs. In kind it is functional, organism-based.

Each structure is given as a SMILES string. Calls of active or inactive are those of the source. The calls are words filed in the database; no cut-off is given here.

For orientation: logD means lipophilicity at a set pH, counting ionised and neutral species. Low values mean a more hydrophilic compound, high ones a more lipophilic compound. Turning to `C=C1/C(=C\C=C2/CCC[C@]3(C)[C@@H]([C@H](C)CCCC(C)(C)O)CC[C@@H]23)C[C@@H](O)C[C@@H]1O` [CALCITRIOL], the result in the series with Mus musculus [1] and in the series on Mus musculus [2] was Active. This molecule also returned a logD in series [3] of 3.6. `C=C1/C(=C\C=C2/CCC[C@]3(C)[C@@H]([C@H](C)COCc4ccco4)CC[C@@H]23)C[C@@H](O)C[C@@H]1O` gave a logD in series [3] of 3.3. On to `C=C1/C(=C\C=C2/CCC[C@]3(C)[C@@H]([C@H](C)COCC(=C)C(C)(C)C)CC[C@@H]23)C[C@@H](O)C[C@@H]1O`, for which the result in the series with Mus musculus [4] and with Mus musculus [5] was Active. This molecule had a logD in series [3] of 4.7. `C=C1/C(=C\C=C2/CCC[C@]3(C)[C@@H]([C@H](C)COC/C=C/C(C)(C)C)CC[C@@H]23)C[C@@H](O)C[C@@H]1O` had a logD in series [3] of 4.9.

`C=C1/C(=C\C=C2/CCC[C@]3(C)[C@@H]([C@H](C)COCC#CC(C)(C)C)CC[C@@H]23)C[C@@H](O)C[C@@H]1O` gave a logD in series [3] of 4.6. `C=C1/C(=C\C=C2/CCC[C@]3(C)[C@@H]([C@H](C)COCc4ccccc4)CC[C@@H]23)C[C@@H](O)C[C@@H]1O` registered a logD in series [3] of 4.4. In turn, `C=C1/C(=C\C=C2/CCC[C@]3(C)[C@@H]([C@H](C)COCC(=C)C4(C)CCCCC4)CC[C@@H]23)C[C@@H](O)C[C@@H]1O` displayed a logD in series [3] of 5.3. `C=C(COC[C@@H](C)[C@H]1CC[C@H]2/C(=C/C=C3/C[C@@H](O)C[C@H](O)C3=C)CCC[C@]12C)C1=CCCCC1(C)C`: the result in the series on Mus musculus [4] and in the series with Mus musculus [5] was Active. The molecule further came in with a logD in series [3] of 4.9. On to `C=C(COC[C@@H](C)[C@H]1CC[C@H]2/C(=C/C=C3/C[C@@H](O)C[C@H](O)C3=C)CCC[C@]12C)c1ccccc1`, for which the logD in series [3] amounted to 5.1.
